{
  "source": "patent US7846722B2",
  "about": "(priority 2001, dated 2010)",
  "data": [
    {"biological_target": "BoNT/A (Clostridium botulinum, UniProt P0DPI0)", "sequence (P0DPI0 whole entry, looked up)": "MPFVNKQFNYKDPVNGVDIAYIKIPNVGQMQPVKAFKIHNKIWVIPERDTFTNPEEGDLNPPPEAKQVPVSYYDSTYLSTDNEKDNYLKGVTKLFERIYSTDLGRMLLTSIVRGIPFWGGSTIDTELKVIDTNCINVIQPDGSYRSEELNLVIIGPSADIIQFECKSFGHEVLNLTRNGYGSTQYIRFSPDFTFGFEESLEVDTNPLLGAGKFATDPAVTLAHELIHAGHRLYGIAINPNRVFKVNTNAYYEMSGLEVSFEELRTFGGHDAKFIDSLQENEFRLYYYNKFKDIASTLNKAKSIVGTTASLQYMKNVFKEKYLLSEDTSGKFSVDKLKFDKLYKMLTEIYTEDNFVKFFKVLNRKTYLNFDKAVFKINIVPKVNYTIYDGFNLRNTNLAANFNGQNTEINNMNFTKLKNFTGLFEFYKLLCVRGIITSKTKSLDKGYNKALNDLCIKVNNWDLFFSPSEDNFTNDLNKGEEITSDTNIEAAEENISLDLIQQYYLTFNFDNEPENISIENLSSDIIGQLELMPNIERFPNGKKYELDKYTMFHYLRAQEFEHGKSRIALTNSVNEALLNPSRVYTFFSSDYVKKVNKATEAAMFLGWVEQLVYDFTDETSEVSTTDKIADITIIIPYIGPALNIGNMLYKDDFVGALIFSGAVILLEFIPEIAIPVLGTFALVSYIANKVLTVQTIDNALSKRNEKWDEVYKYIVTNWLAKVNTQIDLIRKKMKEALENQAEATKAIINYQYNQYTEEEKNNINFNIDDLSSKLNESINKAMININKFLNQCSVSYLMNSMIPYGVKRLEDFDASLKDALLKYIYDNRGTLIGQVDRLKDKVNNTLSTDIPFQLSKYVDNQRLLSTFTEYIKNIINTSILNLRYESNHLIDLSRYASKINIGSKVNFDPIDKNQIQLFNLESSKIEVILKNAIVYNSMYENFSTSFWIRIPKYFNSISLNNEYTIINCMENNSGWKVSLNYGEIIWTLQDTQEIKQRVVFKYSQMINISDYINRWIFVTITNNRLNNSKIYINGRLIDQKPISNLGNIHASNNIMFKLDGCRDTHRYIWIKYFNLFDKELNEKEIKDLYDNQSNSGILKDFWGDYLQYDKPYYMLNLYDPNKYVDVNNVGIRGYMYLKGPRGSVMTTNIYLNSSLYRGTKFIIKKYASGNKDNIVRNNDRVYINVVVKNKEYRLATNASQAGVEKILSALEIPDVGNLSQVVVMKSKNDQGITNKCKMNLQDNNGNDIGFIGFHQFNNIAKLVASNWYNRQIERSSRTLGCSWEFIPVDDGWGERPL", "details": "cited from earlier work", "values": [
      {"molecule": "SNKTRIDEANQRATKXL [Peptide M16X]", "Relative Rate": 1.20},
      {"molecule": "SNKTRIDEANQRATKML [[1-17]]", "Relative Rate": 1.00},
      {"molecule": "SNKTRIDEANQRABKML [Peptide T14B]", "Relative Rate": 1.20},
      {"molecule": "SNKTRIDEANBRATKML [Peptide Q11B]", "Relative Rate": 0.25},
      {"molecule": "SNKTRIDEANQRBTKML [Peptide A13B]", "Relative Rate": 0.79},
      {"molecule": "SNKTRIDEBNQRATKML [Peptide A9B]", "Relative Rate": 0.38}
    ]},
    {"tested_on": "Neuro-2A cells", "format": "cell-based, mouse", "details": "not given", "values": [
      {"molecule": "CC1=C(/C=C/C(C)=C/C=C/C(C)=C/C(=O)O)C(C)(C)CCC1", "note": "[all trans retinoic acid, All Trans-Retinoic acid]", "BoNT/A SNAP25197-cleavage product (uptake of BoNT/A) after differentiation reagent treatment": "increase"}
    ]}
  ]
}
